# Columns and labels:
# Assay type in all cases: cell-based, human
# [1] = tested on: Pdx1 expressing pancreatic progenitor cells (Stage 4/Stage 5 differentiation); assay: PKC activator in Stage 4 and/or Stage 5 medium; FACS analysis of cell composition at end of Stage 5
# Description: (§1) In certain embodiments described herein, induced pluripotent stem cells are differentiated into SC-Di cells or precursors thereof in vitro. An exemplary differentiation protocol is outlined in FIG. 39. Endocrine progenitor cells produced by Stage 5 can comprise a mixture of cell types. For example, the composition can include NKX6.1+/ISL1+β cells, NKX6.1−/ISL1+α cells, NKX6.1−/ISL1− double negative cells, and enterochromaffin (EC) cells (FIG. 18B and FIG. 18C). For example, FIG. 18B and FIG. 18C show a Stage 5 process intermediate cell composition that comprises about 25% NKX6.1+/ISL1+β cells, about 14.5% NKX6.1−/ISL1+α cells, about 42.4% NKX6.1−/ISL1− double negative cells, and about 18.0% enterochromaffin (EC) cells. For certain applications described herein, such as the production of SC-islets, both NKX6.1−/ISL1− double negative (DN)SC-cells and SC-enterochromaffin (EC) cells are off target cell populations. To improve the Stage 5 cellular composition (e.g., increased percentage of NKX6.1+/ISL1+ SC-β cells and NKX6.1−/ISL1+ SC-α cells; decreased percentage of NKX6.1−/ISL1− SC-DN cells and SC-EC cells), modifications to the Stage 4 and/or Stage 5 medium were evaluated (FIG. 19).
# To further improve the Stage 5 cellular composition (e.g., increased percentage of NKX6.1+/ISL1+β cells and NKX6.1−/ISL1+α cells; decreased percentage of NKX6.1−/ISL1− double negative cells and enterochromaffin (EC) cells), further modifications to the Stage 4 and/or Stage 5 medium were evaluated (FIG. 19).
# As shown in FIGS. 25A-25B and FIG. 27, PKC activation (0.5 μM phorbol 12,13-dibutyrate) during Stage 4 decreases the percentage of VMAT1+ SC-EC cells at the end of Stage 5 from 24.8% to 4.9%.
# FIGS. 35A-35B show PKC activation increases the percentage of NKX6.1−/ISL1+ SC-α cells and decreases the percentage of NKX6.1+/ISL1− SC-EC cells at the end of Stage 5 when a PKC activator is used through several times points through Stage 4 or Stage 4 through Stage 5, including S4d3-S4d6, S4d3-S5d2, S4d5-S4d6, and S4d5-S5d2.
# [2] = tested on: Pdx1 expressing pancreatic progenitor cells (Stage 4 differentiation); assay: PKC inhibitor in modified stage 4 medium during S4d5-S4d6; cell composition at end of Stage 5; conditions: for change in percentage of NKX6.1+/ISL1+ β cells at the end of Stage 5: FIG. 33A; for change in percentage of NKX6.1+/ISL1− SC-EC cells at the end of Stage 5: FIG. 33B
# [3] = tested on: Pdx1 expressing pancreatic progenitor cells (Stage 4/Stage 5 differentiation); assay: TNKS/Wnt inhibitor in Stage 4 and/or Stage 5 medium; cell composition at end of Stage 5
# Description: as §1
# As shown in FIGS. 20A-20B and FIGS. 21A-21B, TNKS/Wnt inhibition during Stage 4 increased the percentage of NKX6.1+/ISL1+β cells (FIG. 21A; FIGS. 20A-20B) and decreased the percentage of NKX6.1−/ISL1− double negative cells (FIG. 21B; FIGS. 20A-20B) at the end of stage 5. Multiple TNKS/Wnt inhibitors that increase the percentage of NKX6.1+/ISL1+β cells at the end of Stage 5 at least two-fold over the control were identified (FIG. 28).
# FIGS. 30A-30B show TNKS inhibition increases the percentage of NKX6.1+/ISL1+SC-β cells and decreases the percentage of NKX6.1−/ISL1− SC-DN cells at the end of Stage 5 when TNK inhibitor is used through several times points through Stage 4 or Stage 4 through Stage 5, including S4d3-S4d6, S4d3-S5d2, S4d5-S4d6, and S4d5-S5d2.
structure (smiles),measurement,setting,value
"CCCC(=O)O[C@@H]1[C@@H](C)[C@@]2(O)[C@@H](C=C(CO)C[C@]3(O)C(=O)C(C)=C[C@@H]23)[C@@H]2C(C)(C)[C@]12OC(=O)CCC [phorbol 12,13-dibutyrate, Phorbol 12,13-dibutyrate]",percentage of NKX6.1+/ISL1− SC-EC cells at the end of Stage 5,"[1]; 0.5 μM during S4d5-S5d2, control 32.1%",14.7%
same,percentage of NKX6.1−/ISL1+ SC-α cells at the end of Stage 5,"[1]; 0.5 μM during S4d5-S5d2, control printed 1 1.3%",38.2%
same,percentage of glucagon+ SC-α cells at the end of Stage 5,"[1]; 0.5 μM during Stage 4, control 5.7%",23.7%
same,percentage of ARX+ SC-α cells at the end of Stage 5,"[1]; 0.5 μM during Stage 4, control 10.4%",38.4%
same,percentage of VMAT1+ SC-EC cells at the end of Stage 5,"[1]; 0.5 μM during Stage 4, control 24.8%",4.9%
same,percentage of CDX2+ SC-EC cells at the end of Stage 5,"[1]; 0.5 μM during Stage 4, control 66.4%",21.5%
same,change in percentage of glucagon positive SC-α cells at the end of stage 5 vs control,"[1]; 0.5 μM during stage 4, FACS, FIG. 23",increased
same,change in percentage of ARX positive SC-α cells at the end of stage 5 vs control,"[1]; 0.5 μM during stage 4, FACS, FIG. 24",increased
same,change in percentage of VMAT1 positive SC-EC cells at the end of stage 5 vs control,"[1]; 0.5 μM during stage 4, FACS, FIG. 25",decreased
same,change in percentage of CDX2 positive SC-EC cells at the end of stage 5 vs control,"[1]; 0.5 μM during stage 4, FACS, FIG. 26",decreased
CN1CCN(c2nc(C3=C(c4c[nH]c5ccccc45)C(=O)NC3=O)c3ccccc3n2)CC1 [Sotrastaurin],change in percentage of NKX6.1+/ISL1+ β cells at the end of Stage 5,[2],decrease
same,change in percentage of NKX6.1+/ISL1− SC-EC cells at the end of Stage 5,[2],decrease
Cc1cc(N2C[C@@H](C)N[C@@H](C)C2)ncc1-c1ccc(-c2nc3c(ccn3C)c(=O)[nH]2)cc1 [AZ6102],change in percentage of NKX6.1+/ISL1+ SC-β cells at the end of stage 5 vs control,"[3]; 0.5 μM during S4d5-S4d6, FACS, FIG. 30A",increased
same,change in percentage of NKX6.1+/ISL1+ SC-β cells at the end of stage 5 vs control,"[3]; 0.5 μM during Stage 4 or Stage 5, FIG. 31A",increased
same,change in percentage of NKX6.1−/ISL1− SC-DN cells at the end of stage 5 vs control,"[3]; 0.5 μM during Stage 4 or Stage 5, FIG. 31B",decreased
Cn1cc(C2=C(c3cn(CCCSC(=N)N)c4ccccc34)C(=O)NC2=O)c2ccccc21 [Ro 31-8220],change in percentage of NKX6.1+/ISL1+ β cells at the end of Stage 5,[2],decrease
same,change in percentage of NKX6.1+/ISL1− SC-EC cells at the end of Stage 5,[2],decrease
COc1ccc2c(c1)c(C1=C(c3c[nH]c4ccccc34)C(=O)NC1=O)cn2CCCN(C)C [Go 6983],change in percentage of NKX6.1+/ISL1+ β cells at the end of Stage 5,[2],decrease
same,change in percentage of NKX6.1+/ISL1− SC-EC cells at the end of Stage 5,[2],decrease
